Assay results from ChEMBL document CHEMBL4334510, “Antitumor Activity of Vanicoside B Isolated from Persicaria dissitiflora by Targeting CDK8 in Triple-Negative Breast Cancer Cells” (J Nat Prod, 2019).
Blank lines part the entries; values can stand above or below the compound they belong to. The source made the active and inactive calls. The calls are words filed in the database; no cut-off is given here.

How the values were obtained:
[1] = Toxicity in Balb/c mouse xenografted with human MDA-MB-231 cells assessed as reduction in body weight at 5 mg/kg, ip ip administered 3 times per week and measured 2 times per week for 29 days; type: organism-based; details: in vivo, 696 h
Mus musculus [2] = assay: Downregulation of phosphorylated STAT1 expression at ser727 residue in Balb/c mouse xenografted with human MDA-MB-231 cells at 5 mg/kg, ip administered 3 times per week for 29 days by DAB staining based immunohistochemical analysis; type: functional, organism-based
Mus musculus [3] = assay: Downregulation of AXL expression in Balb/c mouse xenografted with human MDA-MB-231 cells at 5 mg/kg, ip administered 3 times per week for 29 days by DAB staining based immunohistochemical analysis; type: functional, organism-based
Mus musculus [4] = assay: Downregulation of Ki67 expression in Balb/c mouse xenografted with human MDA-MB-231 cells at 5 mg/kg, ip administered 3 times per week for 29 days by DAB staining based immunohistochemical analysis; type: functional, organism-based
MDA-MB-231 [5] = assay: Antiproliferative activity against human MDA-MB-231 cells assessed as reduction in cell viability after 72 hrs by SRB assay; type: functional, cell-based
HCC38 [6] = assay: Antiproliferative activity against human HCC38 cells assessed as reduction in cell viability after 72 hrs by SRB assay; type: functional, cell-based
MDA-MB-231 [7] = assay: Inhibition of colony formation in human MDA-MB-231 cells assessed as reduction in number of colonies at 2.5 to 20 uM after 14 days by crystal violet staining based light microscopic analysis; type: functional, cell-based
HCC38 [8] = assay: Inhibition of colony formation in human HCC38 cells assessed as reduction in number of colonies at 2.5 to 20 uM after 14 days by crystal violet staining based light microscopic analysis; type: functional, cell-based
MDA-MB-231 [9] = assay: Inhibition of colony formation in human MDA-MB-231 cells assessed as reduction in colony size at 2.5 to 20 uM after 14 days by crystal violet staining based light microscopic analysis; type: functional, cell-based
HCC38 [10] = assay: Inhibition of colony formation in human HCC38 cells assessed as reduction in colony size at 20 uM after 14 days by crystal violet staining based light microscopic analysis; type: functional, cell-based
MDA-MB-231 [11] = assay: Cell cycle arrest in human MDA-MB-231 cells assessed as increase in accumulation of cells at sub-G1 phase at 2.5 to 10 uM by PI/RNase staining based flow cytometric analysis; type: functional
HCC38 [12] = assay: Cell cycle arrest in human HCC38 cells assessed as increase in accumulation of cells at sub-G1 phase at 2.5 to 10 uM by PI/RNase staining based flow cytometric analysis; type: functional
MDA-MB-231 [13] = assay: Induction of apoptosis in human MDA-MB-231 cells at 2.5 to 20 uM after 48 hrs by Annexin-V/PI staining based flow cytometric analysis; type: functional, cell-based
HCC38 [14] = assay: Induction of apoptosis in human HCC38 cells at 2.5 to 20 uM after 48 hrs by Annexin-V/PI staining based flow cytometric analysis; type: functional, cell-based
[15] = biological target: Cyclin-dependent kinase 8 (Homo sapiens) (UniProt P49336); assay: Inhibition of CDK8 in human MDA-MB-231 cells assessed as reduction in skp2 expression after 48 hrs by Western blot analysis; type: cell-based
Sequence of Cyclin-dependent kinase 8 (Homo sapiens) (P49336 whole entry): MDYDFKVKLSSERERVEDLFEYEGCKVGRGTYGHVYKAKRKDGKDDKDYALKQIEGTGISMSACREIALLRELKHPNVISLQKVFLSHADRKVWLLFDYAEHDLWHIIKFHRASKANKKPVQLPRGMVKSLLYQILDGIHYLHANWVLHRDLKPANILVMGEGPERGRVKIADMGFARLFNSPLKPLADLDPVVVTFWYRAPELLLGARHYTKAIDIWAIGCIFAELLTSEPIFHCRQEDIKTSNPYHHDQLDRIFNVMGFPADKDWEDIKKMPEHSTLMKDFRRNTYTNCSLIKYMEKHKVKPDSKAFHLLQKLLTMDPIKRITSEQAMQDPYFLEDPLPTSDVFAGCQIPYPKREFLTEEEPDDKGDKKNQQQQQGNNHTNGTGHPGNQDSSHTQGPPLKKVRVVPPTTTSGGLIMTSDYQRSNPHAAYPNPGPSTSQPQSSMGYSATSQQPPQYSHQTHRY

[16] = biological target: Cyclin-dependent kinase 8 (Homo sapiens) (UniProt P49336); assay: Inhibition of CDK8 in human MDA-MB-231 cells assessed as increase in P27 expression after 48 hrs by Western blot analysis; type: cell-based
MDA-MB-231 [17] = assay: Induction of apoptosis in human MDA-MB-231 cells assessed as increase in PARP cleavage after 48 hrs by Western blot analysis; type: functional, cell-based
[18] = biological target: Cyclin-dependent kinase 8 (Homo sapiens) (UniProt P49336); assay: Inhibition of CDK8 in human HCC38 cells assessed as reduction in skp2 expression after 48 hrs by Western blot analysis; type: cell-based
[19] = biological target: Cyclin-dependent kinase 8 (Homo sapiens) (UniProt P49336); assay: Inhibition of CDK8 in human HCC38 cells assessed as increase in P27 expression after 48 hrs by Western blot analysis; type: cell-based
HCC38 [20] = assay: Induction of apoptosis in human HCC38 cells assessed as increase in PARP cleavage after 48 hrs by Western blot analysis; type: functional, cell-based
[21] = biological target: Cyclin-dependent kinase 8 (Homo sapiens) (UniProt P49336); assay: Inhibition of CDK8 in human MDA-MB-231 cells assessed as reduction in HK1 expression at 10 uM after 24 hrs by RT-PCR analysis; type: cell-based
[22] = biological target: Cyclin-dependent kinase 8 (Homo sapiens) (UniProt P49336); assay: Inhibition of CDK8 in human MDA-MB-231 cells assessed as increase in P27 expression at 10 uM after 24 hrs by RT-PCR analysis; type: cell-based
[23] = biological target: Cyclin-dependent kinase 8 (Homo sapiens) (UniProt P49336); assay: Inhibition of CDK8 in human HCC38 cells assessed as reduction in HK1 expression at 10 uM after 24 hrs by RT-PCR analysis; type: cell-based
[24] = biological target: Cyclin-dependent kinase 8 (Homo sapiens) (UniProt P49336); assay: Inhibition of CDK8 in human HCC38 cells assessed as increase in P27 expression at 10 uM after 24 hrs by RT-PCR analysis; type: cell-based
[25] = biological target: Cyclin-dependent kinase 8 (Homo sapiens) (UniProt P49336); assay: Inhibition of CDK8 in human MDA-MB-231 cells assessed as reduction in STAT1 phosphorylation at Ser727 residue after 24 hrs by Western blot analysis; type: cell-based
[26] = biological target: Cyclin-dependent kinase 8 (Homo sapiens) (UniProt P49336); assay: Inhibition of CDK8 in human MDA-MB-231 cells assessed as reduction in AXL expression after 24 hrs by Western blot analysis; type: cell-based
[27] = biological target: Cyclin-dependent kinase 8 (Homo sapiens) (UniProt P49336); assay: Inhibition of CDK8 in human MDA-MB-231 cells assessed as reduction in STAT3 phosphorylation after 24 hrs by Western blot analysis; type: cell-based
[28] = biological target: Cyclin-dependent kinase 8 (Homo sapiens) (UniProt P49336); assay: Inhibition of CDK8 in human MDA-MB-231 cells assessed as reduction in S6 phosphorylation after 24 hrs by Western blot analysis; type: cell-based
[29] = biological target: Cyclin-dependent kinase 8 (Homo sapiens) (UniProt P49336); assay: Inhibition of CDK8 in human HCC38 cells assessed as reduction in STAT1 phosphorylation at Ser727 residue after 24 hrs by Western blot analysis; type: cell-based
[30] = biological target: Cyclin-dependent kinase 8 (Homo sapiens) (UniProt P49336); assay: Inhibition of CDK8 in human HCC38 cells assessed as reduction in AXL expression after 24 hrs by Western blot analysis; type: cell-based
[31] = biological target: Cyclin-dependent kinase 8 (Homo sapiens) (UniProt P49336); assay: Inhibition of CDK8 in human HCC38 cells assessed as reduction in STAT3 phosphorylation after 24 hrs by Western blot analysis; type: cell-based
[32] = biological target: Cyclin-dependent kinase 8 (Homo sapiens) (UniProt P49336); assay: Inhibition of CDK8 in human HCC38 cells assessed as reduction in S6 phosphorylation after 24 hrs by Western blot analysis; type: cell-based
MDA-MB-231 [33] = assay: Antimigratory activity against human MDA-MB-231 cells at 1.25 to 5 uM after 24 hrs by scratch wound healing based microscopic analysis; type: functional, cell-based
HCC38 [34] = assay: Antimigratory activity against human HCC38 cells at 1.25 to 5 uM after 24 hrs by scratch wound healing based microscopic analysis; type: functional, cell-based
MDA-MB-231 [35] = assay: Inhibition of epithelial-mesenchymal transition in human MDA-MB-231 cells reduction in beta catenin protein expression after 24 hrs by Western blot analysis; type: functional, cell-based
MDA-MB-231 [36] = assay: Inhibition of epithelial-mesenchymal transition in human MDA-MB-231 cells reduction in BMP4 protein expression after 24 hrs by Western blot analysis; type: functional, cell-based
MDA-MB-231 [37] = assay: Inhibition of epithelial-mesenchymal transition in human MDA-MB-231 cells reduction in vimentin protein expression after 24 hrs by Western blot analysis; type: functional, cell-based
HCC38 [38] = assay: Inhibition of epithelial-mesenchymal transition in human HCC38 cells reduction in beta catenin protein expression after 24 hrs by Western blot analysis; type: functional, cell-based
HCC38 [39] = assay: Inhibition of epithelial-mesenchymal transition in human HCC38 cells reduction in BMP4 protein expression after 24 hrs by Western blot analysis; type: functional, cell-based
HCC38 [40] = assay: Inhibition of epithelial-mesenchymal transition in human HCC38 cells reduction in vimentin protein expression after 24 hrs by Western blot analysis; type: functional, cell-based
MDA-MB-231 [41] = assay: Inhibition of epithelial-mesenchymal transition in human MDA-MB-231 cells increase in E-cadherin expression at 5 uM after 24 hrs by RT-PCR analysis; type: functional, cell-based
MDA-MB-231 [42] = assay: Inhibition of epithelial-mesenchymal transition in human MDA-MB-231 cells reduction in N-cadherin expression at 5 uM after 24 hrs by RT-PCR analysis; type: functional, cell-based
HCC38 [43] = assay: Inhibition of epithelial-mesenchymal transition in human HCC38 cells increase in E-cadherin expression at 5 uM after 24 hrs by RT-PCR analysis; type: functional, cell-based
HCC38 [44] = assay: Inhibition of epithelial-mesenchymal transition in human HCC38 cells reduction in N-cadherin expression at 5 uM after 24 hrs by RT-PCR analysis; type: functional, cell-based
MDA-MB-231 [45] = assay: Antitumour activity against human MDA-MB-231 cells xenografted in Balb/c mouse assessed as reduction in tumour volume at 5 mg/kg, ip administered 3 times per week and measured 2 times per week for 29 days relative to control; type: functional; set-up: scale not given: the % may be the effect or the level left
MDA-MB-231 [46] = assay: Antitumour activity against human MDA-MB-231 cells xenografted in Balb/c mouse assessed as reduction in tumour volume at 20 mg/kg, ip administered 3 times per week and measured 2 times per week for 29 days relative to control; type: functional; set-up: scale not given: the % may be the effect or the level left
[47] = Toxicity in Balb/c mouse xenografted with human MDA-MB-231 cells assessed as effect on body weight at 5 to 20 mg/kg, ip ip administered 3 times per week and measured 2 times per week for 29 days; type: organism-based; details: in vivo, 696 h
Mus musculus [48] = assay: Downregulation of phosphorylated STAT1 expression at ser727 residue in Balb/c mouse xenografted with human MDA-MB-231 cells at 5 to 20 mg/kg, ip administered 3 times per week for 29 days by DAB staining based immunohistochemical analysis; type: functional, organism-based
Mus musculus [49] = assay: Downregulation of AXL expression in Balb/c mouse xenografted with human MDA-MB-231 cells at 5 to 20 mg/kg, ip administered 3 times per week for 29 days by DAB staining based immunohistochemical analysis; type: functional, organism-based
Mus musculus [50] = assay: Downregulation of Ki67 expression in Balb/c mouse xenografted with human MDA-MB-231 cells at 5 to 20 mg/kg, ip administered 3 times per week for 29 days by DAB staining based immunohistochemical analysis; type: functional, organism-based

Compound: CC(=O)O[C@H]1C(=O)[C@@]2(C)[C@H]([C@H](OC(=O)c3ccccc3)[C@]3(O)C[C@H](OC(=O)[C@H](O)[C@@H](NC(=O)c4ccccc4)c4ccccc4)C(C)=C1C3(C)C)[C@]1(OC(C)=O)CO[C@@H]1C[C@@H]2O [PACLITAXEL]
Activity [1]: Toxic
Activity (Mus musculus [2]): inactive
Activity (Mus musculus [3]): inactive
Activity (Mus musculus [4]): Active

IC50 (MDA-MB-231 [5]; MDA-MB-231, 72 h): 9 µM
inhibition [15]: Dose-dependent effect
inhibition [16]: Dose-dependent effect
inhibition [18]: Dose-dependent effect
inhibition [19]: Dose-dependent effect
inhibition [21]: Active
inhibition [22]: Active
inhibition [23]: Active
inhibition [24]: Active
inhibition [25]: Dose-dependent effect
inhibition [26]: Dose-dependent effect
inhibition [27]: Dose-dependent effect
inhibition [28]: Dose-dependent effect
inhibition [29]: Dose-dependent effect
inhibition [30]: Dose-dependent effect
inhibition [31]: Dose-dependent effect
inhibition [32]: Dose-dependent effect
Compound: COc1cc(/C=C/C(=O)OC[C@H]2O[C@H](O[C@]3(COC(=O)/C=C/c4ccc(O)cc4)O[C@H](COC(=O)/C=C/c4ccc(O)cc4)[C@@H](O)[C@@H]3OC(=O)/C=C/c3ccc(O)cc3)[C@H](O)[C@@H](O)[C@@H]2O)ccc1O [VANICOSIDE B]
Activity (MDA-MB-231 [5]): Dose-dependent effect
Activity (HCC38 [6]): Dose-dependent effect
inhibition (MDA-MB-231 [7]): Active
inhibition (HCC38 [8]): Active
inhibition (MDA-MB-231 [9]): Active
inhibition (HCC38 [10]): Active
Activity (MDA-MB-231 [11]): Active
Activity (HCC38 [12]): Active
Activity (MDA-MB-231 [13]): Active
Activity (HCC38 [14]): Active
Activity (MDA-MB-231 [17]): Dose-dependent effect
Activity (HCC38 [20]): Dose-dependent effect
Activity (MDA-MB-231 [33]): Active
Activity (HCC38 [34]): Active
inhibition (MDA-MB-231 [35]): Dose-dependent effect
inhibition (MDA-MB-231 [36]): Dose-dependent effect
inhibition (MDA-MB-231 [37]): Dose-dependent effect
inhibition (HCC38 [38]): Dose-dependent effect
inhibition (HCC38 [39]): Dose-dependent effect
inhibition (HCC38 [40]): Dose-dependent effect
inhibition (MDA-MB-231 [41]): Active
inhibition (MDA-MB-231 [42]): Active
inhibition (HCC38 [43]): Active
inhibition (HCC38 [44]): Active
Activity (MDA-MB-231 [45]): 53.85%
Activity (MDA-MB-231 [46]): 65.72%
Activity [47]: Non-Toxic
Activity (Mus musculus [48]): Active
Activity (Mus musculus [49]): Active
Activity (Mus musculus [50]): Active
